According to patent US20030165579A1, “Euphorbia antiquorum extract, a pharmaceutical composition containing the same and methods for treatment of cancers” (priority 2002, published 2003):

Legend:
[1] = system: Ehrlich acites tumor cell; conditions: Planta Med. 62, 322-5, 1996; cited from earlier work
hepatoma = conditions: cited from earlier work
[2] = system: P-388 lymphocytic leukemia; conditions: mice; cited from earlier work
U-937 = experiment: Cell proliferation assay (MTS) on U-937; format: cell-based, Human; conditions: for Cell Growth: positive control
Procedure: (§1) The ability of extract of Euphorbia antiquorum described in Example 1 to inhibit the growth of five different human tumor cell lines was tested. The activity of Doxorubicin, a currently clinically used chemotherapeutic agent, against the tumor cell lines was tested as a control.
(§2) Five human tumor cell lines COLO 205, HT-29, U-937, MOLT4 and HA22T/VGH, were tested in this example (Table 3).
(§3) All five cancer cell lines were stored in liquid nitrogen. After thawing, cells were maintained as monolayer in appropriate medium (GIBCO, USA) supplemented with 10% fetal bovine serum, sodium bicarbonate, L-glutamine (2 mM), streptomycin (100 μg/ml) and penicillin-G (100 units/ml) in a humidified incubator at 37±1° C. and 5% CO2 in air.
(§4) Exponentially growing human cancer cells were seeded in an appropriate medium in 96-well ELISA microtiter plates. The number of cells for each cell line plated in 96-well plates was determined from the growth curve obtained in MTS assay (600 to 20,000 cells depending on cell line). These plates of adherent cells were incubated overnight. Six well cultures were used for each concentration of MH801 of the invention and for negative and positive control cultures.
(§5) MH801 was dissolved in culture medium. […] Since the solution prepared in culture medium at working concentration can be used directly rather than a stock solution at 200 fold concentration in DMSO, culture medium, instead of DMSO, was used as vehicle in the present invention. Maximum concentration for this assay was 10 mg/ml. Serial ten fold dilution was used in this invention, and therefore, the concentrations were 10, 1, 0.1, 0.01 and 0.001 mg/ml. After sufficient mixing, this solution was passed through filter of 0.2 μm pore size for sterility. Filtrate was serially diluted with culture medium to desired concentrations for treatment.
(§6) After three days of culture, the viable cells were counted by changing the culture medium containing a tetrazolium compound
(§7) (3-4,5-dimethylthiazol-2-yl)-5(3-carboxymethoxyphenyl)-2-(4-sulfophenyl)-2H-tetrazolium, inner salt and an electron coupling reagent to measure mitochondrial enzyme activity. The absorbance at […] was measured after 2 hours to 4 hours reaction time. Cell growth % is calculated using the following equations: [formula]
(§8) Doxourbicin was used as positive control for assay system evaluation and was prepared in dimethyl sulfoxide (Merck Art. 2931, Germany) as stock solution to be added to culture medium.

tumors = conditions: chemotherapy, tumor control; cited from earlier work
HA22T/VGH = experiment: Cell proliferation assay (MTS) on HA22T/VGH; format: cell-based, Human; conditions: positive control
Procedure: as §1, §2, §3, §4, §5, §6, §7, §8

HT-29 = experiment: Cell proliferation assay (MTS) on HT-29; format: cell-based, Human; conditions: for Cell Growth: positive control
Procedure: as §1, §2, §3, §4
MH801 was dissolved in culture medium. […] Since the solution prepared in culture medium at working concentration can be used directly rather than a stock solution at 200 fold concentration in DMSO, culture medium, instead of DMSO, was used as vehicle in the present invention. Maximum concentration for this assay was 10 mg/ml. Serial ten fold dilution was used in this invention, and therefore, the concentrations were 10, 1, 0.1, 0.01 and 0.001 mg/ml. […]
as §6
(3-4,5-dimethylthiazol-2-yl)-5(3-carboxymethoxyphenyl)-2-(4-sulfophenyl)-2H-tetrazolium, inner salt and an electron coupling reagent to measure mitochondrial enzyme activity. The absorbance at […] was measured after 2 hours to 4 hours reaction time. Cell growth % is calculated using the following equations: [formula] […]

COLO 205 = experiment: Cell proliferation assay (MTS) on COLO 205; format: cell-based, Human; conditions: for Cell Growth: positive control
Procedure: as §1, §2, §3, §4, §5, §6, §7, §8

MOLT 4 = experiment: Cell proliferation assay (MTS) on MOLT 4; format: cell-based, Human; conditions: for Cell Growth: positive control
Procedure: as §1, §2, §3, §4, §5, §6, §7, §8

For 9,19-cycloart-23-ene-3 β,24-diol, the “inhibitory activity against Ehrlich acites tumor cell” value [1] is given as “significant inhibitory activity”.

In the case of `O=c1[nH]cc(F)c(=O)[nH]1` [5-FU], the “patients responded to the medicine” value (hepatoma; 62 hepatoma patients, hepatic intra-arterial infusion) is given as 48%, the “survival, non-responders” value (hepatoma; hepatoma patients who did not respond) is given as 1.8 months and the “survival in average, responders” value (hepatoma; hepatoma patients who responded) is given as 6.9 months.

For `CCCCCCCCCCCCCCCC(=O)OC[C@@]12O[C@@H]1[C@@H]1C(=O)[C@]3(C=C(C)[C@H](OC(=O)C(C)C(C)C)[C@@]3(O)[C@@H]2O)[C@H](C)C[C@]2(OC(=O)CCCCCCCCCCC)[C@H]1C2(C)C` (stereo partly shown) [6,7-epoxy-13-hydroxyingenol-3-(2,3-dimethylbutanoate)-13 dodecanoate-20-hexadecanoate], the “antileukemic activity against P-388 lymphocytic leukemia” value [2] is given as “antileukemic effect”.

In the case of `CCCCCCCCCCCCCCCC(=O)OCC1=C[C@@H]2C(=O)[C@]3(C=C(C)[C@H](OC(=O)C(C)C(C)C)[C@@]3(O)[C@@H]1O)[C@H](C)C[C@]1(OC(=O)CCCCCCCCCCC)[C@H]2C1(C)C` (stereo partly shown) [13-hydroxyingenol-3-(2,3-dimethylbutanoate)-13-dodecanoate-20-hexadecanoate], the “antileukemic activity against P-388 lymphocytic leukemia” value [2] is given as “antileukemic effect”.

With `COc1cccc2c1C(=O)c1c(O)c3c(c(O)c1C2=O)C[C@@](O)(C(=O)CO)C[C@@H]3O[C@H]1C[C@H](N)[C@H](O)[C@H](C)O1` [Doxorubicin] the “Cell Growth” value (U-937; U-937, 0.0058 μg/ml) was 100.5%, the “Cell Growth” value (U-937; U-937, 0.058 μg/ml) was 80.9% and the “Cell Growth” value (U-937; U-937, 0.58 μg/ml) was 3.7%. The “Cell Growth” value (U-937; U-937, 5.8 μg/ml) was 1.6%, the “antiproliferative effect” value (U-937; U-937, positive control) was “very strong antiproliferative effect” and the remission effect (tumors) was 15-23%. The “Cell Growth” value (HA22T/VGH; 0.0058 μg/ml) was 103%, the “Cell Growth” value (HA22T/VGH; 0.058 μg/ml) was 81.53% and the “Cell Growth” value (HA22T/VGH; 0.58 μg/ml) was 38.8%. For the same molecule, the “Cell Growth” value (HA22T/VGH; 5.8 μg/ml) was 14.4%, the “antiproliferative effect” value (HA22T/VGH) was “very strong antiproliferative effect” and the “Cell Growth” value (HT-29; HT-29, 1.74 μg/ml) was 35%. The “Cell Growth” value (HT-29; HT-29, 3.48 μg/ml) was 15.9%, the “antiproliferative effect” value (HT-29; HT-29, positive control) was “very strong antiproliferative effect” and the “Cell Growth” value (COLO 205; COLO 205, 0.058 μg/ml) was 63.2%. The “Cell Growth” value (COLO 205; COLO 205, 0.58 μg/ml) was 33.8%, the “Cell Growth” value (COLO 205; COLO 205, 5.8 μg/ml) was 8.23% and the “antiproliferative effect” value (COLO 205; COLO 205, positive control) was “very strong antiproliferative effect”. The “Cell Growth” value (MOLT 4; MOLT 4, 0.0058 μg/ml) was 71.2%, the “Cell Growth” value (MOLT 4; MOLT 4, 0.058 μg/ml) was 0% and the “Cell Growth” value (MOLT 4; MOLT 4, 0.58 μg/ml) was 0%. The “Cell Growth” value (MOLT 4; MOLT 4, 5.8 μg/ml) was 0% and the “antiproliferative effect” value (MOLT 4; MOLT 4, positive control) was “very strong antiproliferative effect”.

For `CC1=C[C@]23C(=O)[C@@H](C=C(COC(=O)c4ccccc4)[C@@H](O)[C@]2(O)[C@H]1OC(=O)c1ccccc1)[C@H]1[C@@H](C[C@H]3C)C1(C)C` [Ingenol 3,20-debenzoate], the “antileukemic activity against P-388 lymphocytic leukemia” value [2] is given as “antileukemic activity”.

In the case of `C/C=C(\C)C(=O)O[C@@H]1[C@@H](C)[C@@]2(O)[C@@H](C=C(CO)C[C@]3(O)C(=O)C(C)=C[C@@H]23)[C@@H]2C(C)(C)[C@]12OC(=O)CCCCCCCCC` [phorbol 12-tiglate 13-decanoate], the “antileukemic activity against P-388 lymphocytic leukemia” value [2] is listed as “antileukemic activity”.
